Reference: patent US9296723B2, “NAMPT inhibitors” (AbbVie Inc., priority 2012, dated 2016)

Experiments:
PC3 cells = assay: NAMPT Cell Proliferation Assay (Cell Titer Glo); type: cell-based; conditions: Homo sapiens, PC-3, 120 h, incubated 5 days, cell viability
Procedure, shortened: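 Viability measured by Cell Titer Glo luminescence after 5-day exposure of attached PC3 cells to compound, dosed as 10-fold serial dilutions ([…]) in RPMI/10% FBS at 37 °C and 5% CO2. Percent inhibition fitted to sigmoidal dose-response curves for IC50.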

NAMPT [1] = molecular target: T1, NAMPT (Homo sapiens, UniProt P43490); assay: Time-Resolved Fluorescence Resonance Energy Transfer (TR-FRET) Binding Assay of NAMPT; conditions: 6.8 nM NAMPT, 200 nM probe, equilibrated 3 hours, no substrates
T1 sequence (P43490 whole entry): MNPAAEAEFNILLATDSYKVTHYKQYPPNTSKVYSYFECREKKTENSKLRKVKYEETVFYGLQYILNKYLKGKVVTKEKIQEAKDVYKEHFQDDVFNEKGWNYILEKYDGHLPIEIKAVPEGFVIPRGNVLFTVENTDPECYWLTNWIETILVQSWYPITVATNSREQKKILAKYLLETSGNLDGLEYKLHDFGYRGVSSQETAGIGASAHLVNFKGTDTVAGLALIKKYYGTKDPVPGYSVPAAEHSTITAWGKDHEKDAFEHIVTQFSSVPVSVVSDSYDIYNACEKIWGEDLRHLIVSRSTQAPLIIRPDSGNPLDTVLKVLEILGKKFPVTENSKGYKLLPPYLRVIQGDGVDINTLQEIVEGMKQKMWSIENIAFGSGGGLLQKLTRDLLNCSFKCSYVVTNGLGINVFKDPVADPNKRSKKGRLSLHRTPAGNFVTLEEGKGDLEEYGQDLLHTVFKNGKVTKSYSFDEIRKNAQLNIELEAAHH
Procedure, shortened: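 IC50s come from four-parameter logistic fits of control-normalized Em520/Em495 TR-FRET ratios (Ex 337 nm) against compound concentration. Before reading, enzyme, probe, antibody and compound equilibrated for 3 h at room temperature.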

NAMPT [2] = molecular target: T1, NAMPT; assay: TR-FRET Binding Assay of NAMPT with PRPP; conditions: 2 nM NAMPT, 2 nM probe, 200 µM PRPP and 2.5 mM ATP, equilibrated 16 hours
Experimental: Time-Resolved Fluorescence Resonance Energy Transfer (TR-FRET) Binding Assay of NAMPT with PRPP
Compound handling and data processing were identical to the assay in the absence of substrates (above). Final concentrations were 1× assay buffer, 2% DMSO, 2 nM NAMPT, 2 nM probe, 1 nM Tb-anti-His antibody (Invitrogen #PV5895), 200 µM PRPP and 2.5 mM ATP. Reactions were equilibrated for 16 hours prior to measurement to allow for potential enzymatic modification of test compounds.

Row | SMILES | IC50 (PC3 cells) [nM] | IC50 (NAMPT [1]) [nM] | IC50 (NAMPT [2]) [nM]
1 | O=C(CC1CC1)N1CC=C(c2ccc(NC(=O)N3CC(c4cccnc4)C3)cc2)CC1 [Example 26, N-{4-[1-(cyclopropylacetyl)-1,2,3,6-tetrahydropyridin-4-yl]phenyl}-3-(pyridin-3-yl)azetidine-1-carboxamide] | 172 | 73.6 | 0.724
2 | O=C(Nc1ccc(OC2CN(C(=O)[C@H]3CCCO3)C2)cc1)N1CC(c2cccnc2)C1 [Example 28, 3-(pyridin-3-yl)-N-[4-({1-[(2R)-tetrahydrofuran-2-ylcarbonyl]azetidin-3-yl}oxy)phenyl]azetidine-1-carboxamide] | 64.2 | 77.2 | 0.218
3 | CC(C)(O)C(=O)N1CC(Oc2ccc(NC(=O)N3CC(c4cccnc4)C3)cc2)C1 [Example 30, N-(4-{[1-(2-hydroxy-2-methylpropanoyl)azetidin-3-yl]oxy}phenyl)-3-(pyridin-3-yl)azetidine-1-carboxamide] | 125 | 69.4 | 0.255
4 | O=C(CCN1CCOCC1)N1CCC(Oc2ccc(NC(=O)N3CC(c4cccnc4)C3)cc2)CC1 [Example 37, N-[4-({1-[3-(morpholin-4-yl)propanoyl]piperidin-4-yl}oxy)phenyl]-3-(pyridin-3-yl)azetidine-1-carboxamide] | 72.9 | 85.4 | 0.174
5 | CN1CCN(CCC(=O)N2CCC(Oc3ccc(NC(=O)N4CC(c5cccnc5)C4)cc3)CC2)CC1 [Example 38, N-[4-({1-[3-(4-methylpiperazin-1-yl)propanoyl]piperidin-4-yl}oxy)phenyl]-3-(pyridin-3-yl)azetidine-1-carboxamide] | 83.6 | 34.3 | 0.201
6 | CCCC(=O)N1CCC(Oc2ccc(NC(=O)N3CC(c4cccnc4)C3)cc2)CC1 [Example 43, N-{4-[(1-butanoylpiperidin-4-yl)oxy]phenyl}-3-(pyridin-3-yl)azetidine-1-carboxamide] | 28 | 23.7 | 0.234
7 | CC(C)(C)C(=O)N1CCC(Oc2ccc(NC(=O)N3CC(c4cccnc4)C3)cc2)CC1 [Example 44, N-(4-{[1-(2,2-dimethylpropanoyl)piperidin-4-yl]oxy}phenyl)-3-(pyridin-3-yl)azetidine-1-carboxamide] | 38.5 | 44.6 | 0.315
8 | O=C(Nc1ccc(OC2CCN(C(=O)C3CC3)CC2)cc1)N1CC(c2cccnc2)C1 [Example 47, N-(4-{[1-(cyclopropylcarbonyl)piperidin-4-yl]oxy}phenyl)-3-(pyridin-3-yl)azetidine-1-carboxamide] | 64 | 30.3 | 0.268
9 | O=C(Nc1ccc(C2CCN(C(=O)c3ccccc3)CC2)cc1)N1CC(c2cccnc2)C1 [Example 57, N-[4-(1-benzoylpiperidin-4-yl)phenyl]-3-(pyridin-3-yl)azetidine-1-carboxamide] | 3.58 | 6.85 | 0.222
10 | CC(C)(C)OC(=O)N1CCC(c2ccc(NC(=O)N3CC(c4cccnc4)C3)cc2)C1 (stereo not drawn) [Example 59, tert-butyl 3-[4-({[3-(pyridin-3-yl)azetidin-1-yl]carbonyl}amino)phenyl]pyrrolidine-1-carboxylate] | 68.5 | 38.5 | 0.364
11 | CC(C)(C)OC(=O)N1CC[C@H](Oc2ccc(NC(=O)N3CC(c4cccnc4)C3)cc2)C1 [Example 61, tert-butyl (3S)-3-[4-({[3-(pyridin-3-yl)azetidin-1-yl]carbonyl}amino)phenoxy]pyrrolidine-1-carboxylate] | 30.7 | 20.9 | 0.31
12 | CC(C)(C)OC(=O)N1CC(Oc2ccc(NC(=O)N3CC(c4cccnc4)C3)cc2)C1 [Example 63, tert-butyl 3-[4-({[3-(pyridin-3-yl)azetidin-1-yl]carbonyl}amino)phenoxy]azetidine-1-carboxylate] | 12 | 44.6 | 0.39

The remaining lines, values ahead:

Row | IC50 (PC3 cells) [nM] | IC50 (NAMPT [1]) [nM] | IC50 (NAMPT [2]) [nM] | SMILES
13 | 9.2 | 13 | 0.243 | CC(C)C(=O)N1CC=C(c2ccc(NC(=O)N3CC(c4cccnc4)C3)cc2)CC1 [Example 27, N-{4-[1-(2-methylpropanoyl)-1,2,3,6-tetrahydropyridin-4-yl]phenyl}-3-(pyridin-3-yl)azetidine-1-carboxamide]
14 | 66.1 | 53.4 | 0.243 | O=C(Nc1ccc(OC2CN(C(=O)[C@@H]3CCCO3)C2)cc1)N1CC(c2cccnc2)C1 [Example 29, 3-(pyridin-3-yl)-N-[4-({1-[(2S)-tetrahydrofuran-2-ylcarbonyl]azetidin-3-yl}oxy)phenyl]azetidine-1-carboxamide]
15 | 38.9 | 40.6 | 0.33 | O=C(Nc1ccc(OC2CCN(C(=O)[C@@H]3CCCO3)CC2)cc1)N1CC(c2cccnc2)C1 [Example 31, 3-(pyridin-3-yl)-N-[4-({1-[(2S)-tetrahydrofuran-2-ylcarbonyl]piperidin-4-yl}oxy)phenyl]azetidine-1-carboxamide]
16 | 58.7 | 18.8 | 0.209 | O=C(Nc1ccc(OC2CCN(C(=O)c3cccs3)CC2)cc1)N1CC(c2cccnc2)C1 [Example 32, 3-(pyridin-3-yl)-N-(4-{[1-(thiophen-2-ylcarbonyl)piperidin-4-yl]oxy}phenyl)azetidine-1-carboxamide]
17 | 68.7 | 56.1 | 0.43 | O=C(Nc1ccc(OC2CCN(C(=O)c3ccsc3)CC2)cc1)N1CC(c2cccnc2)C1 [Example 33, 3-(pyridin-3-yl)-N-(4-{[1-(thiophen-3-ylcarbonyl)piperidin-4-yl]oxy}phenyl)azetidine-1-carboxamide]
18 | 62.4 | 50.7 | 0.264 | CC(=O)N1CCC(C(=O)N2CCC(Oc3ccc(NC(=O)N4CC(c5cccnc5)C4)cc3)CC2)CC1 [Example 34, N-[4-({1-[(1-acetylpiperidin-4-yl)carbonyl]piperidin-4-yl}oxy)phenyl]-3-(pyridin-3-yl)azetidine-1-carboxamide]
19 | 90.2 | 89.2 | 0.492 | CC1CC1C(=O)N1CCC(Oc2ccc(NC(=O)N3CC(c4cccnc4)C3)cc2)CC1 (stereo not drawn) [Example 35, N-[4-({1-[(2-methylcyclopropyl)carbonyl]piperidin-4-yl}oxy)phenyl]-3-(pyridin-3-yl)azetidine-1-carboxamide]
20 | 115 | 90.5 | 0.338 | O=C(CCN1CCCC1)N1CCC(Oc2ccc(NC(=O)N3CC(c4cccnc4)C3)cc2)CC1 [Example 39, 3-(pyridin-3-yl)-N-[4-({1-[3-(pyrrolidin-1-yl)propanoyl]piperidin-4-yl}oxy)phenyl]azetidine-1-carboxamide]
21 | 26.4 | 50.5 | 0.419 | O=C(CC1CC1)N1CCC(Oc2ccc(NC(=O)N3CC(c4cccnc4)C3)cc2)CC1 [Example 40, N-(4-{[1-(cyclopropylacetyl)piperidin-4-yl]oxy}phenyl)-3-(pyridin-3-yl)azetidine-1-carboxamide]
22 | 69.8 | 76.8 | 0.448 | CCC(C)CC(=O)N1CCC(Oc2ccc(NC(=O)N3CC(c4cccnc4)C3)cc2)CC1 (stereo not drawn) [Example 41, N-(4-{[1-(3-methylpentanoyl)piperidin-4-yl]oxy}phenyl)-3-(pyridin-3-yl)azetidine-1-carboxamide]
23 | 100 | 43.8 | 0.27 | CC(C)CCC(=O)N1CCC(Oc2ccc(NC(=O)N3CC(c4cccnc4)C3)cc2)CC1 [Example 42, N-(4-{[1-(4-methylpentanoyl)piperidin-4-yl]oxy}phenyl)-3-(pyridin-3-yl)azetidine-1-carboxamide]
24 | 63.4 | 34.3 | 0.223 | CC(C)(C)CC(=O)N1CCC(Oc2ccc(NC(=O)N3CC(c4cccnc4)C3)cc2)CC1 [Example 45, N-(4-{[1-(3,3-dimethylbutanoyl)piperidin-4-yl]oxy}phenyl)-3-(pyridin-3-yl)azetidine-1-carboxamide]
25 | 44.2 | 93.1 | 0.226 | CCOCC(=O)N1CCC(Oc2ccc(NC(=O)N3CC(c4cccnc4)C3)cc2)CC1 [Example 46, N-(4-{[1-(ethoxyacetyl)piperidin-4-yl]oxy}phenyl)-3-(pyridin-3-yl)azetidine-1-carboxamide]
26 | 80.1 | 150 | 0.245 | O=C(NCC1CCOC1)c1ccc(NC(=O)N2CC(c3cccnc3)C2)cc1 (stereo not drawn) [Example 49, 3-(pyridin-3-yl)-N-{4-[(tetrahydrofuran-3-ylmethyl)carbamoyl]phenyl}azetidine-1-carboxamide]
27 | 1.78 | 17.2 | 0.303 | CC(C)(O)C(=O)N1CCC(c2ccc(NC(=O)N3CC(c4cccnc4)C3)cc2)CC1 [Example 51, N-{4-[1-(2-hydroxy-2-methylpropanoyl)piperidin-4-yl]phenyl}-3-(pyridin-3-yl)azetidine-1-carboxamide]
28 | 69.7 | 91.5 | 0.467 | CC(C)(C)OC(=O)N1CC(c2ccc(NC(=O)N3CC(c4cccnc4)C3)cc2)C1 [Example 62, tert-butyl 3-[4-({[3-(pyridin-3-yl)azetidin-1-yl]carbonyl}amino)phenyl]azetidine-1-carboxylate]
